Experimental data taken from US20240182413A1, “INSECTICIDAL COMPOUNDS” (Pluton Biosciences, Inc., priority 2022, published 2024).
“And” between values parts separate entries of the source, which are not always exact repeats. Equal values may be shown once. Read-outs that look alike come from different tables or passages of the source.

Columns and labels:
[1] = system: Spodoptera frugiperda (fall armyworm) first instar larvae; test: Spodoptera frugiperda killing assay (diet-surface overlay); assay type: in vivo; settings: for LC50: Spodoptera frugiperda
Experimental: Insect killing assays. Each compound was dissolved in dimethyl sulfoxide (DMSO). Killing dose curves were constructed for each compound by producing a two-fold dilution series of the compound (e.g., comprising approximately 16 serial dilutions of a stock for 3,3′-diindolylmethane and 3-((1H-Indol-2-yl)methyl)-1H-indole and comprising approximately 12 serial dilutions of a stock for 3,3′-diindolyl and 3,3′-(pyridin-4-ylmethylene)bis(1H-indole)). Dilutions were made in sterile NYSM broth as described above. The two-fold dilution series were tested in a killing bioassay as described below. Data were collected to construct a dose curve and determine the half-maximal lethal concentration (LC50) value.
Bioassays were performed using first instar larvae of the Lepidopteran species Spodoptera frugiperda (fall armyworm), with an N=16 for each concentration of compound tested. S. frugiperda larvae were purchased from Benzon Research, Inc. (Carlisle, PA). A diet-surface overlay format was used in which 1 milliliter of standard lepidopteran diet was placed in each well. One hundred microliters of sample were pipetted into each well and allowed to dry. A DMSO control was included with each set of samples.
During the development of embodiments of the technology described herein, experiments were conducted to test the killing of arundine against a panel of 11 insect species. […] Briefly, arundine was dissolved in dimethyl sulfoxide (DMSO). Killing dose curves were constructed by producing a two-fold dilution series of arundine. Dilutions were made in sterile NYSM as described. The two-fold dilution series were tested in a killing bioassay performed using first instar larvae of the species listed in Table 4, with an N=16 for each concentration of compound tested. A diet-surface overlay format was used in which 1 milliliter of standard lepidopteran diet was placed in each well. One hundred microliters of sample were pipetted into each well and allowed to dry. A DMSO control was included with each set of samples. […] Data were collected to construct a dose curve and determine the half-maximal lethal concentration (LC50) value.

[2] = system: fall armyworm (Spodoptera frugiperda); settings: after seven days of exposure; cited from earlier work
[3] = system: S. eridania (Southern armyworm) first instar larvae; test: Insect panel killing assay (diet-surface overlay); assay type: in vivo
Experimental: (§1) During the development of embodiments of the technology described herein, experiments were conducted to test the killing of arundine against a panel of 11 insect species. Killing assays were performed as described in Example 2 for Spodoptera frugiperda. Briefly, arundine was dissolved in dimethyl sulfoxide (DMSO). Killing dose curves were constructed by producing a two-fold dilution series of arundine. Dilutions were made in sterile NYSM as described. The two-fold dilution series were tested in a killing bioassay performed using first instar larvae of the species listed in Table 4, with an N=16 for each concentration of compound tested. A diet-surface overlay format was used in which 1 milliliter of standard lepidopteran diet was placed in each well. One hundred microliters of sample were pipetted into each well and allowed to dry. A DMSO control was included with each set of samples. Spinosad (MilliporeSigma, catalog #33706) was used as a positive control for insecticidal activity, and water was used as an additional negative control. Data were collected to construct a dose curve and determine the half-maximal lethal concentration (LC50) value. In Table 4, % of insects killed is provided in the table cells for the concentrations listed at the top (2500, 625, 156, and 0 μg/mL arundine).

[4] = system: S. exigua (Beet armyworm) first instar larvae; test: Insect panel killing assay (diet-surface overlay); assay type: in vivo
Experimental: as §1

[5] = system: H. virescens (Tobacco budworm) first instar larvae; test: Insect panel killing assay (diet-surface overlay); assay type: in vivo
Experimental: as §1

[6] = system: D. grandiosella (Southwestern corn borer) first instar larvae; test: Insect panel killing assay (diet-surface overlay); assay type: in vivo
Experimental: as §1

[7] = system: C. pomonella (Codling moth) first instar larvae; test: Insect panel killing assay (diet-surface overlay); assay type: in vivo
Experimental: as §1

[8] = system: C. includens (Soybean looper) first instar larvae; test: Insect panel killing assay (diet-surface overlay); assay type: in vivo
Experimental: as §1

[9] = system: D. saccharalis (Sugarcane borer) first instar larvae; test: Insect panel killing assay (diet-surface overlay); assay type: in vivo
Experimental: as §1

[10] = system: T. ni (Cabbage looper) first instar larvae; test: Insect panel killing assay (diet-surface overlay); assay type: in vivo
Experimental: as §1

[11] = system: A. gemmatalis (Velvetbean caterpillar) first instar larvae; test: Insect panel killing assay (diet-surface overlay); assay type: in vivo
Experimental: as §1

[12] = system: H. zea (Corn earworm) first instar larvae; test: Insect panel killing assay (diet-surface overlay); assay type: in vivo
Experimental: as §1

[13] = system: fall armyworm (FAW), susceptible and the two resistant varieties (Cry1 and Vip3A); test: Killing of susceptible and Bt-resistant fall armyworm (strain not specified); assay type: in vivo, Spodoptera frugiperda; settings: 1000 ppm BIM compound, 20 μl on diet surface, neonate larvae, at 7 days
Experimental: (§2) During the development of embodiments of the technology provided herein, experiments were conducted to test the killing potency of arundine-derived BIM compounds against strains of fall armyworm (FAW) that are resistant to Bacillus thuringiensis (Bt) insecticidal proteins (e.g., Cry1Fa and Vip3A). Susceptible FAW (Spodoptera frugiperda) was obtained from Benzon Research Inc, Lancaster, PA. Cry1Fa resistant FAW originating from Puerto Rico was reared in a facility by Genective (Weldon, IL). Vip3A resistant FAW originating from southern US was reared in a facility by Genective (Weldon, IL).
FAW eggs were incubated at approximately 26° C. at 50% relative humidity until eclosion (approximately 3 days) and the hatch was timed to within 12 hours of infesting the diet plates. BIM compounds were obtained from frozen stocks, thawed, suspended in 5% DMSO along with NYSM buffer to provide a solution of 2000 ppm BIM compound in a total volume of 1.0 ml, and stored at −20° C. For testing, a single tube of each BIM compound sample was thawed at 4° C. NYSM buffer was warmed to room temperature. A volume of 750 μl. […]
(§3) For each of 3 replicates, 200 μl of diet was prepared in wells of a 96-well plate and the diet plates were warmed to room temperature prior to dispensing samples. […] All bioassays were assessed visually to record larval mortality and growth inhibition.

[14] = system: Aedes aegypti larvae; test: Aedes aegypti killing assay (larval bioassay, two-fold dilution series); assay type: in vivo; settings: Aedes aegypti, 72 h
Experimental: Insect killing assays. Each compound was dissolved in dimethyl sulfoxide (DMSO). Killing dose curves were constructed for each compound by producing a two-fold dilution series for each compound (e.g., comprising approximately 20 serial dilutions of a stock). Dilutions were made in sterile nutrient yeast extract salt medium (NYSM) broth. The NYSM contained 8 g/L nutrient broth powder, 0.5 g/L yeast extract, 1 mM MgCl2, 700 μM CaCl2, and 50 μM MnCl2 in water. The two-fold dilution series were tested in a killing bioassay as described below. Data were collected to construct a dose curve and determine the half-maximal lethal concentration (LC50) value.
Bioassays were performed using second or third instar Aedes aegypti larvae, with biological replication. Ae. aegpyti larvae were purchased from Benzon Research, Inc. (Carlisle, PA). Larvae were washed with sterile water before transfer to 24-well assay plates containing 1 mL of sterile water in each well. Each well contained 5 larvae. The final DMSO concentration in each assay well was 1%. Larval mortality was scored for each well at 24-hour timepoints after application. […] In Table 1, mean mortalities and standard deviations were calculated from at least three independent biological replicates. […] LC50 values were calculated using GraphPad Prism software.

[15] = system: Aedes aegypti; settings: previously shown; cited from earlier work
[16] = system: Cry1Fa resistant FAW; test: Killing of Cry1Fa resistant fall armyworm; assay type: in vivo, Spodoptera frugiperda; settings: 1000 ppm BIM compound, 20 μl on diet surface; neonates; 5-7 days
Experimental: as §2
(§4) FAW eggs were incubated at approximately 26° C. at 50% relative humidity until eclosion (approximately 3 days) and the hatch was timed to within 12 hours of infesting the diet plates. BIM compounds were obtained from frozen stocks, thawed, suspended in 5% DMSO along with NYSM buffer to provide a solution of 2000 ppm BIM compound in a total volume of 1.0 ml, and stored at −20° C. For testing, a single tube of each BIM compound sample was thawed at 4° C. NYSM buffer was warmed to room temperature. A volume of 750 μl. NYSM buffer was added to 750 μl from each 1.0-ml volume to prepare samples of 1.5 ml BIM compound at 1000 ppm for testing. A total of three BIM preparations per BIM molecule were prepared and tested for killing potency. Compounds tested were BIM-1, 11, 25, 26, 28, 29, 30, 32, 34. A solution of 5% DMSO in NYSM buffer was used as a negative control.
A standard commercially available semi-solid lepidopteran diet was prepared following manufacturer's instructions (Frontier, multi-species diet). […] LB+Kanamycin (antibiotic) growth media is the negative control for bacterial cultures. Cry1Fa is a positive control prepared as E. coli cells expressing the full-length Cry1Fa protein resuspended in PBS buffer at half the volume of the original growth culture resulting in 2× concentration of cells. Vip3A is a positive control prepared as E. coli whole cell culture expressing Vip3A.
For each of 3 replicates, 200 μl of diet was prepared in wells of a 96-well plate and the diet plates were warmed to room temperature prior to dispensing samples. After 750 μl NYSM buffer was added to 750 μl from each 1.0-ml volume to prepare samples of 1.5 ml BIM compound at 1000 ppm for testing, BIM solutions were vortexed and 20 μl were dispensed onto the diet surface in each of 16 wells using a repeating pipettor. These steps were repeated for each sample and control for each insect population being tested. BIM compound and control solutions were allowed to absorb into the diet in a biosafety hood until the diet surface was visibly dry. Once dry, wells were sealed with a clear membrane. Two pin holes were poked through the membrane in each well to maintain appropriate humidity level and aeration. Each well was infested with a single neonate larva, and the wells were resealed with perforated membrane to prevent escape. The infested plates were incubated in environmental chambers at 26° C. and 50% relative humidity for 5-7 days. All bioassays were assessed visually to record larval mortality and growth inhibition.

[17] = system: Vip3A resistant FAW; test: Killing of Vip3A resistant fall armyworm; assay type: in vivo, Spodoptera frugiperda; settings: 1000 ppm BIM compound, 20 μl on diet surface, 5-7 days
Experimental: as §2, §4
A standard commercially available semi-solid lepidopteran diet was prepared following manufacturer's instructions (Frontier, multi-species diet). […] LB+Kanamycin (antibiotic) growth media is the negative control for bacterial cultures. […]
as §3

[18] = first instar larvae, calculated from killing dose curves FIG. 3D to 3NN, read-out: LD50 (the source's name)

## c1ccc2c(Cc3c[nH]c4ccccc34)c[nH]c2c1 [Arundine, 3,3′-diindolylmethane]
[1]; 156 μg/mL arundine
  % killing: 40%
[1]; 625 μg/mL arundine
  % killing: 63%
[1]; 2500 μg/mL arundine
  % killing: 97%
[1]; [18]
  LC50: 1820 µM
[2]
  mortality: greater than 95%
[3]; 156 μg/mL arundine
  % killing: 23%
[3]; 625 μg/mL arundine
  % killing: 100%
[3]; 2500 μg/mL arundine
  % killing: 100%
[4]; 156 μg/mL arundine
  % killing: 72%
[4]; 625 μg/mL arundine
  % killing: 94%
[4]; 2500 μg/mL arundine
  % killing: 72%
[5]; 156 μg/mL arundine
  % killing: 74%
[5]; 625 μg/mL arundine
  % killing: 74%
[5]; 2500 μg/mL arundine
  % killing: 87%
[6]; 156 μg/mL arundine
  % killing: 47%
[6]; 625 μg/mL arundine
  % killing: 90%
[6]; 2500 μg/mL arundine
  % killing: 83%
[7]; 156 μg/mL arundine
  % killing: 21%
[7]; 625 μg/mL arundine
  % killing: 50%
[7]; 2500 μg/mL arundine
  % killing: 39%
[8]; 156 μg/mL arundine
  % killing: 27%
[8]; 625 μg/mL arundine
  % killing: 50%
[8]; 2500 μg/mL arundine
  % killing: 80%
[9]; 156 μg/mL arundine
  % killing: 100%
[9]; 625 μg/mL arundine
  % killing: 100%
[9]; 2500 μg/mL arundine
  % killing: 100%
[10]; 156 μg/mL arundine
  % killing: 41%
[10]; 625 μg/mL arundine
  % killing: 72%
[10]; 2500 μg/mL arundine
  % killing: 93%
[11]; 156 μg/mL arundine
  % killing: 100%
[11]; 625 μg/mL arundine
  % killing: 70%
[11]; 2500 μg/mL arundine
  % killing: 97%
[12]; 156 μg/mL arundine
  % killing: 40%
[12]; 625 μg/mL arundine
  % killing: 50%
[12]; 2500 μg/mL arundine
  % killing: 90%

## Clc1ccc2c(C(Cc3ccccc3)c3c[nH]c4cc(Cl)ccc34)c[nH]c2c1 [BIM-26]
[1]; [18]
  LC50: 581 µM
[13]
  lethality: 60-70%

## c1ccc2[nH]c(Cc3c[nH]c4ccccc34)cc2c1 [3-((1H-indol-2-yl)methyl)-1H-indole, 3-((1H-Indol-2-yl)methyl)-1H-indole]
[1]; first instar larvae, N=16 per concentration, representative curve fit
  LC50: 598 µg/mL and 2.4 mM
[1]; first instar larvae
  activity against S. frugiperda: active
[14]
  LC50: 5.5 µg/mL and 22.5 µM
[15]
  activity against Aedes aegypti: active

## O=[N+]([O-])c1ccc(C(c2c[nH]c3cc(Cl)ccc23)c2c[nH]c3cc(Cl)ccc23)cc1 [BIM-32]
[16]
  lethality: strong lethality
[17]; neonates
  lethality: strong lethality

## Clc1ccc2c(C(c3ccccc3)c3c[nH]c4cc(Cl)ccc34)c[nH]c2c1 [BIM-25]
[1]; [18]
  LC50: 504 µM
[16]
  lethality: strong lethality
[17]; neonates
  lethality: strong lethality

## Clc1ccc2c(Cc3c[nH]c4cc(Cl)ccc34)c[nH]c2c1 [BIM-11]
[1]; [18]
  LC50: 1180 µM
[17]; Vip3A-resistant neonates
  lethality: 100%
